# Calls of active or inactive are those of the source. The calls are words filed in the database; no cut-off is given here.
# How the values were obtained:
# HT-22 [1] = assay: Neuroprotective activity in mouse HT-22 cells assessed as inhibition of glutamate-induced nuclear condensation at 25 uM incubated for 12 hrs in presence of glutamate by Hoechst 33342 staining based fluorescence microscopic analysis; assay type: functional, cell-based
# HT-22 [2] = assay: Neuroprotective activity in mouse HT-22 cells assessed as reduction in glutamate-induced intracellular Ca2+ level at 25 uM incubated for 8 hrs in presence of glutamate by Fluo-4AM staining based microscopic imaging analysis; assay type: functional, cell-based
# HT-22 [3] = assay: Neuroprotective activity against glutamate-induced cytotoxicity in mouse HT-22 cells assessed as cell viability at 25 to 50 uM incubated for 24 hrs in presence of glutamate by EZ-CyTox reagent based analysis (reference value: 50 %); assay type: functional; conditions: dose 25-50 µM
# HT-22 [4] = assay: Neuroprotective activity against glutamate-induced cytotoxicity in mouse HT-22 cells assessed as cell viability at 50 to 100 uM incubated for 24 hrs in presence of glutamate by EZ-CyTox reagent based analysis; assay type: functional; conditions: dose 50-100 µM
# HT-22 [5] = assay: Neuroprotective activity against glutamate-induced cytotoxicity in mouse HT-22 cells assessed as cell viability at 25 uM incubated for 24 hrs in presence of glutamate by EZ-CyTox reagent based analysis relative to control; assay type: functional; conditions: read-out: Activity
# HT-22 [6] = assay: Neuroprotective activity in mouse HT-22 cells assessed as reduction in glutamate-induced intracellular Ca2+ level at 10 to 20 uM incubated for 8 hrs in presence of glutamate by Fluo-4AM staining based microscopic imaging analysis; assay type: functional, cell-based; conditions: dose 10-20 µM
# HT-22 [7] = assay: Inhibition of glutamate-induced MAPK activation in mouse HT-22 cells assessed as reduction in p38 phosphorylation at 10 to 20 uM incubated for 11 hrs in presence of glutamate by Western blot analysis; assay type: cell-based; conditions: dose 10-20 µM
# HT-22 [8] = assay: Inhibition of glutamate-induced MAPK activation in mouse HT-22 cells assessed as reduction in JNK phosphorylation at 10 to 20 uM incubated for 11 hrs in presence of glutamate by Western blot analysis; assay type: cell-based; conditions: dose 10-20 µM
# HT-22 [9] = assay: Inhibition of glutamate-induced MAPK activation in mouse HT-22 cells assessed as reduction in ERK phosphorylation at 10 to 20 uM incubated for 11 hrs in presence of glutamate by Western blot analysis; assay type: cell-based; conditions: dose 10-20 µM
# HT-22 [10] = assay: Neuroprotective activity in mouse HT-22 cells assessed as inhibition of glutamate-induced nuclear condensation at 10 to 20 uM incubated for 12 hrs in presence of glutamate by Hoechst 33342 staining based fluorescence microscopic analysis; assay type: functional, cell-based; conditions: dose 10-20 µM
# HT-22 [11] = assay: Neuroprotective activity against glutamate-induced cytotoxicity in mouse HT-22 cells assessed as cell viability at 12.5 uM incubated for 24 hrs in presence of glutamate by EZ-CyTox reagent based analysis; assay type: functional
# HT-22 [12] = assay: Neuroprotective activity against glutamate-induced cell death in mouse HT-22 cells assessed as reduction in Bax/Bcl2 ratio at 10 to 20 uM incubated for 11 hrs in presence of glutamate by Western blot analysis; assay type: functional, cell-based; conditions: dose 10-20 µM
# HT-22 [13] = assay: Neuroprotective activity in mouse HT-22 cells assessed as reduction in glutamate-induced intracellular Ca2+ level at 50 uM incubated for 8 hrs in presence of glutamate by Fluo-4AM staining based microscopic imaging analysis; assay type: functional, cell-based
Compound,inhibition (HT-22 [1]),Activity (HT-22 [2]),Activity (HT-22 [3]) [%],viability at 25 µM (HT-22 [5]) [%],also measured
CC(/C=C/C1=CC2=C(Cl)C(=O)[C@](C)(O)[C@H](O)[C@@H]2CO1)=C\[C@@H](C)CCO,inactive,inactive,80,–,–
CC[C@H](C)/C=C(C)/C=C/C1=CC2=CC(=O)[C@](C)(O)[C@H](O)[C@H]2CO1,inactive,inactive,–,–,Activity (HT-22 [4]): Active
CC[C@H](C)/C=C(C)/C=C/C1=CC2=C(Cl)C(=O)[C@](C)(OC(C)=O)C(=O)C2=CN1CCO,Active,–,80,100,Activity (HT-22 [6]): Active
CC[C@@H](/C=C(C)/C=C/C1=CC2=CC(=O)[C@](C)(O)[C@H](O)[C@H]2CO1)CO,inactive,inactive,80,–,–
CC[C@H](C)/C=C(C)/C=C/C1=CC2=C(Cl)C(=O)[C@](C)(OC(C)=O)C(=O)C2=CN1 [SCLEROTIORAMINE],–,–,–,100,inhibition (HT-22 [7]): Active; inhibition (HT-22 [8]): Active; inhibition (HT-22 [9]): Active; inhibition (HT-22 [10]): Active; Activity (HT-22 [6]): Active; Activity (HT-22 [11]): Active; Activity (HT-22 [12]): Active
CC[C@H](C)/C=C(C)/C=C/C1=CC2=C(Cl)C(=O)[C@](C)(O)[C@H](O)C2=CO1,–,–,–,–,Activity (HT-22 [4]): Active
CC[C@H](C)/C=C(C)/C=C/C1=CC2=C(Cl)C(=O)[C@](C)(OC)C(=O)C2=CN1CCO,Active,–,80,100,Activity (HT-22 [13]): Active

# — ChEMBL document CHEMBL5053497, “Azaphilones from an Endophytic Penicillium sp. Prevent Neuronal Cell Death via Inhibition of MAPKs and Reduction of Bax/Bcl-2 Ratio” (2021)
